Results from patent US11787772B2, “Carboxylic diarythiazepineamines as mixed mu- and delta-opioid receptor agonists” (THE TRUSTEES OF COLUMBIA UNIVERSITY IN THE CITY OF NEW YORK, priority 2017, dated 2023).
Counter-ions that a name gives are not always drawn.

Assays:
[1] = physchem; conditions: 25 °C, thermodynamic from solid
Protocol: Test compounds (4 mg) were added to 200 μL of one of the tested aqueous solutions (hereinafter—buffer): 100 mM aqueous HCl (pH 1) or 100 mM Na-phosphate buffer (pH 7). The obtained suspensions/solutions with the theoretical concentration of 20 mg/mL were further allowed to equilibrate at 25° C. on a thermostatic orbital shaker for 24 hours and then centrifuged at 6000 rpm for 4 minutes and filtered through HTS filter plates using a vacuum manifold. In parallel, compound dilutions in 50% acetonitrile/HCl and 30% acetonitrile/Na-phosphate buffer mixes were prepared to theoretical concentrations of 0 mg/mL (blank), 0.1 mg/mL, 0.2 mg/mL, and 0.4 mg/mL in duplicates to generate calibration curves falling within the optimum UV absorption range. The filtrates of test compounds were diluted 100-fold with acetonitrile-buffer mixtures before measuring. The filtered supernatant test samples were transferred to 96-well plates and measured for absorbance in the 200-550 nm range with 5 nm step increment. The concentrations of compounds in supernatants were calculated using the measured absorbance and the previously determined calibration curve. Proper absorbance wavelengths for calculations were selected for each compound manually based on absorbance maxima (absolute absorbance unit values for the minimum and maximum concentration points within 0-2.5 OD range).

[2] = Solubility determination (Method A), neutral water; assay type: physicochemical; conditions: for solubility at 24 h: distilled water, thermodynamic from solid, neutral water, 20° C., Method A (24 h stirring), average of 2 independent trials, read-out: Aqueous Solubility (mg/mL @ 20° C.)
Protocol: (§1) A quantity of the appropriate compound sufficient to saturate the resulting solution was added to distilled water (0.50 mL) and the mixture was stirred vigorously for 24 h at room temperature (20° C.). The mixture was then centrifuged for 3 min. at 21,000×g and the stir bar was carefully removed. The mixture was then centrifuged again for 5 min. at 21,000×g and the supernatant was carefully removed by syringe and passed through a […] syringe filter. An aliquot (300 μL) of the filtered supernatant was concentrated in vacuo and the mass of the residual solids determined in order to calculate the solubility.

[3] = Solubility determination (Method B), neutral water; assay type: physicochemical; conditions: for solubility at 2 h: distilled water, thermodynamic from solid, neutral water, 20° C., Method B (2 h orbital shaker), read-out: Aqueous Solubility (mg/mL @ 20° C.)
Protocol: as §1, with “agitated on an orbital shaker” for “was stirred vigorously”, “2” for “24”, “centrifuged” for “centrifuged for 3 min. at 21,000×g and the stir bar was carefully removed. The mixture was then centrifuged again”

[4] = molecular target: T1, human mu opioid receptor (MOR) (Homo sapiens, UniProt P35372); assay: BRET assay measuring G protein activation, agonist activity at human MOR; assay type: cell-based; conditions: for MOR potency relative to analogs lacking substitution at position 2: dihalo-substituted core
T1 construct: expressed in transfected cells; host or cells: HEK-293T
Protocol: (§2) The diarylthiazepinamine carboxylic acids (9) were tested for agonist activity at the human mu opioid receptor (MOR) and delta opioid receptor (DOR) using bioluminescence resonance energy transfer (BRET) assays measuring G protein activation as previously described (Table 1) (Rives, M.-L. et al. 2012; Negri, A. et al. 2013).
Human MOR cDNA was transfected alongside GααB with RLuc8 inserted at position 91 (GααB—RLuc8), Gβ1 (β1), and Gγ2 fused to the full-length mVenus at its N terminus (mVenus-γ2) into HEK-293T cells (5×10^6 cells/plate) in 10-cm dishes using PEI (Polysciences Inc.; Warrington, PA) in a 1:1 ratio diluted in Opti-MEM (Life Technologies Corp.; Grand Island, NY) to assay for G protein activation as described previously (Rives, M.-L. et al. 2012; Negri, A. et al. 2013). Cells were maintained in Dulbecco's Modified Eagle Medium (high glucose #11965; Life Technologies) supplemented with 10% FBS (Premium Select, Atlanta Biologicals; Atlanta, GA) and 100 U/mL penicillin and 100 μg/mL streptomycin (#15140, Life Technologies). After 24 hours the media was changed, and the experiment was performed 24 hours later (48 hours after transfection).
(§3) Transfected cells were dissociated and re-suspended in phosphate-buffered saline (PBS). Approximately 200,000 cells/well were added to a black-framed, white well 96-well plate (#60050; Perkin Elmer; Waltham, MA). The microplate was centrifuged and the cells were re-suspended in PBS. Then 5 μM of the luciferase substrate coelenterazine H was added to each well for 5 minutes. Following coelenterazine H addition, ligands were added and the BRET signal was measured at 5 minutes on a PHERAstar FS plate reader. Quantification of the BRET signal required calculating the ratio of the light emitted by the energy acceptor, mVenus (510-540 nm), over the light emitted by the energy donor, RLuc8 (485 nm). […] Dose response curves were fit using a three-parameter logistics equation in GraphPad Prism 6.
The additional diarylthiazepinamine carboxylic acids (9i, 9j, 9k, and 91) were tested for agonist activity at the human mu opioid receptor (MOR) using bioluminescence resonance energy transfer (BRET) assays measuring G protein activation (Table 2) as previously described (Rives, M.-L. et al. 2012; Negri, A. et al. 2013; Example 2 of the present application).

[5] = tested on: male C57BL/6 mice; assay: Analgesic activity in hot plate assay; assay type: in vivo, mouse; conditions: for ED50: Mus musculus, sc, hot plate 55° C., male C57BL/6 mice, tested at 15 post-injection; for Analgesic activity in the mouse hot plate assay: much higher potency than tianeptine
Protocol: Male C57BL/6 mice were timed for latency to jump on a hot-plate apparatus set to 55° C., using a 30 s cutoff to prevent tissue damage. Following a baseline test, animals were injected subcutaneously (s.c.) with escalating doses of drug and tested at […] (time of maximal effect). Dose-response curves were fit via nonlinear regression using GraphPad Prism (La Jolla, CA).

[6] = molecular target: T2, human delta opioid receptor (DOR) (Homo sapiens, UniProt P41143); assay: BRET assay measuring G protein activation, agonist activity at human DOR; assay type: cell-based
T2 construct: expressed in transfected cells
Protocol: as §2, §3

T1 sequence (P35372 whole entry): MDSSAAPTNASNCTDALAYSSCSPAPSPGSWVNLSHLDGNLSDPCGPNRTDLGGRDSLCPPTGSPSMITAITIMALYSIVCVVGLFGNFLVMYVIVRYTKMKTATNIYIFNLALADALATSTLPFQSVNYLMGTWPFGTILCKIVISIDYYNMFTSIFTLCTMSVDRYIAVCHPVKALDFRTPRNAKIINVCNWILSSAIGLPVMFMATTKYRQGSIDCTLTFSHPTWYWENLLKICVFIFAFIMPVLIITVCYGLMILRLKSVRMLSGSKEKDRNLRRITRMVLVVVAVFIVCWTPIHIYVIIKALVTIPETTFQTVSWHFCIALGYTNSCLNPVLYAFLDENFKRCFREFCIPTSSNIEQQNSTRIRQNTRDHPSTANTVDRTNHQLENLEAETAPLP
T2 sequence (P41143 whole entry): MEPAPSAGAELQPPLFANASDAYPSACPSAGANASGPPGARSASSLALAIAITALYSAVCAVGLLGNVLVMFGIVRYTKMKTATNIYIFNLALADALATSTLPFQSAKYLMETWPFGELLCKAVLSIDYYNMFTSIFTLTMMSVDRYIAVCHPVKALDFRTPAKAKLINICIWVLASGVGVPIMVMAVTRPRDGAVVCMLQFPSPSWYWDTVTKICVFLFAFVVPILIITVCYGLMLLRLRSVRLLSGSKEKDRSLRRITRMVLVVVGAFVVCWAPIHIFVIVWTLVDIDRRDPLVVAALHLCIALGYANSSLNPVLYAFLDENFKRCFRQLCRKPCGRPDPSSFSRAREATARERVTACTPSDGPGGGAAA

SMILES	solubility ([1]; pH 1, simulated gastric fluid)	solubility ([1]; pH 7, aqueous buffer)	solubility at 24 h [2]	solubility at 2 h [3]	EC50 [4]	MOR potency relative to analogs lacking substitution at position 2 [4]	ED50 [5]	Analgesic activity in the mouse hot plate assay [5]	Solubility relative to monohalo counterpart bromotianeptine ([2]; neutral unbuffered water)	EC50 [6]	Solubility relative to monohalo counterpart iodotianeptine ([3]; neutral unbuffered water)
CN1c2ccccc2C(NCCCCCCC(=O)O)c2ccc(Br)cc2S1(=O)=O.Cl (stereo not shown) [bromotianeptine, reference compound]	< 100 µg/mL	620 µg/mL	4.5 mg/mL	–	–	–	–	–	–	–	–
CN1c2ccccc2C(NCCCCCCC(=O)O)c2ccc(I)cc2S1(=O)=O.Cl (stereo not shown) [iodotianeptine, reference compound]	< 100 µg/mL	150 µg/mL	–	2.3 mg/mL	–	–	–	–	–	–	–
CN1c2ccccc2C(NCCCCCCC(=O)O)c2cc(F)c(Cl)cc2S1(=O)=O.Cl (stereo not shown) [Compound 9j, 7-((3-chloro-2-fluoro-6-methyl-5,5-dioxido-6,11-dihydrodibenzo [c,f][1,2]thiazepin-11-yl)amino)heptanoic acid hydrochloride salt]	5300 µg/mL	70 µg/mL	–	–	129 nM	equipotent or more potent	–	–	–	–	–
CN1c2ccccc2C(NCCCCCCC(=O)O)c2cc(F)c(Br)cc2S1(=O)=O (stereo not shown) [Compound 9b, 7-((3-Bromo-2-fluoro-6-methyl-5,5-dioxido-6,1-dihydrodibenzo [c,f][1,2]thiazepin-11-yl)amino) heptanoic acid hydrochloride salt]	1100 µg/mL	840 µg/mL	9.8 mg/mL	–	83.1 ± 5.7 nM	equipotent or more potent	5.1 mg/kg	potent analgesics	2-3 fold	11500 ± 2200 nM	–
CN1c2ccccc2C(NCCCCCCC(=O)[O-])c2ccc(Cl)cc2S1(=O)=O.[Na+] (stereo not shown) [Tianeptine (Na salt), Tianeptine, reference compound]	–	–	–	–	–	–	15 mg/kg	–	–	–	–
CN1c2ccccc2C(NCCCCCCC(=O)O)c2cc(F)c(I)cc2S1(=O)=O.Cl (stereo not shown) [Compound 9k, 7-((2-fluoro-3-iodo-6-methyl-5,5-dioxido-6,11-dihydrodibenzo [c,f][1,2]thiazepin-11-yl)amino) heptanoic acid hydrochloride salt]	2700 µg/mL	390 µg/mL	–	5.7 mg/mL	4.6 nM	equipotent or more potent	1.7 mg/kg	potent analgesics	–	–	2-3 fold
